Assay [1] deals with TP3-T6 (DNA, G4) TGGGGTCCGAGGCGGGGCTTGGG
As to the kind of experiment: 1H NMR titration (imino protons). The settings on record: 70 mM KCl, 20 mM KH2PO4, pH 7.0, 25 °C, 90% H2O.

The test system is the same in assay [2]. As to the kind of experiment: CD melting at 265 nm. The settings on record: 70 mM KCl; 20 mM phosphate pH 7.1; 2 µM DNA, 6 µM ligand; no stabilization.
The test system is the same in assay [3]. As to the kind of experiment: CD melting. The settings on record: 70 mM KCl; 20 mM phosphate pH 7.1; 2 µM DNA, DNA:ligand 1:3.

Here are results for five compounds from publication PMC9369712 (2022).

For orientation: ΔTm means the shift of the melting midpoint relative to a reference.

Take `CN(C)CCNC(=O)c1cccn2c(=O)c3cc4ccccc4cc3nc12`: the binding result in assay [1] (3'-end tetrad) was “yes”.

For the compound `CN(C)CCNC(=O)c1cccn2c(=O)c3sc4ccccc4c3nc12`, the binding entry in assay [2] and in assay [1] (3'-end tetrad) was “yes” in each case.

On to `Cc1cc2c3c([n+](C)c4ccc(F)cc4c3c1)-c1cc(F)ccc1N2C`, for which the binding entry in assay [1] (5'-terminal tetrad signals broadened) was “yes”.

Regarding `Cc1cnc(CNC(=O)c2c(=O)c3ccc(N4CCCN(C)CC4)nc3n3c2sc2ccccc23)cn1`, in assay [1] (3'-end tetrad), the binding result was “yes”.

`NCCOc1cc(C(=O)Nc2cc(OCCN)c3ccccc3n2)nc(C(=O)Nc2cc(OCCN)c3ccccc3n2)c1`: the thermal shift (ΔTm) in assay [3] was over 30 °C.
